Test results from patent US20260184697A1, “EZH1/2 INHIBITOR, PREPARATION THEREOF, AND USE THEREOF IN ANTI-TUMOR THERAPY” (JIANGSU TASLY DIYI PHARMACEUTICAL CO., LTD., priority 2022, published 2026).
pIC50: −log10 of the molar value. Like-named read-outs stand apart in the source and are kept apart here.

Columns and labels:
[1] = system: H3K27Me3 methylation in Karpas-422 cells; assay: H3K27Me3 cell method, inhibition of H3K27Me3 methylation (Test Example 2); format: cell-based, human; conditions: for pIC50: Karpas-422 cells, 3 days incubation, HTRF signal, read-out: Test Example 2 H3K27Me3 inhibition (Karpas-422) IC50; for IC50: read-out: Test Example 2 H3K27Me3 inhibition (Karpas-422) IC50(nM)
Procedure: Karpas-422 (Nanjing Kebai, CBP60629) cells were seeded in a 96-well plate (Corning, 3894) at 15,000 cells per well in culture medium (80% 1640 (Hyclone, SH30809.01)+20% FBS (Corning, 35-081-CV)), and then added with different concentrations of compounds for treatment. The cell growth group without adding compounds is used as a positive control (maximum signal control), and the medium is used as a negative control (minimum signal control), while ensuring that in each reaction well, the final concentration of DMSO was 0.2%. Compounds and cells were incubated for 3 days in a cell culture incubator (37° C., 5% CO2). The 96-well plate was taken out from the cell culture incubator and equilibrated to room temperature, and 25 ul of cell suspension was taken out into a 384-well plate. The CCK8 (Beiyuntian, C0040) detection reagent was added, incubated at 37° C. for 1 h, and […] was detected. The rest of the cells followed the procedure of the kit EPIgeneous H3K27Me3 cellular kit (Cisbio, 62KC3PAE) to carry out experiment, read HTRF signal with BMG PHERAStar. […] By GraphPad Prism 6 with log(inhibitor)vs.response-Variable slope model simulation, the IC50 of the compound on cell activity inhibition was calculated. The fitting equation is: Y=Bottom+(Top−Bottom)/(1+10^((Log IC50−X)*HillSlope)), wherein Y represents the inhibition rate, and X represents the known concentration of the compound after Log.

EZH2/SUZ/EED = target: T1, EZH2/SUZ/EED (Homo sapiens, UniProt O75530+Q15022+Q15910); assay: Inhibitory effect on EZH2 by the MTase-Glo method (Test Example 1); format: biochemical; conditions: EZH2/SUZ/EED 6.25 nM, H3 peptide 10 μM, SAM 3 μM, 30° C. 3 h, read-out: Test Example 1 WT EZH2 IC50
T1 construct: purchased BPS 51003
T1 sequence (Q15910 2-746 limits assumed): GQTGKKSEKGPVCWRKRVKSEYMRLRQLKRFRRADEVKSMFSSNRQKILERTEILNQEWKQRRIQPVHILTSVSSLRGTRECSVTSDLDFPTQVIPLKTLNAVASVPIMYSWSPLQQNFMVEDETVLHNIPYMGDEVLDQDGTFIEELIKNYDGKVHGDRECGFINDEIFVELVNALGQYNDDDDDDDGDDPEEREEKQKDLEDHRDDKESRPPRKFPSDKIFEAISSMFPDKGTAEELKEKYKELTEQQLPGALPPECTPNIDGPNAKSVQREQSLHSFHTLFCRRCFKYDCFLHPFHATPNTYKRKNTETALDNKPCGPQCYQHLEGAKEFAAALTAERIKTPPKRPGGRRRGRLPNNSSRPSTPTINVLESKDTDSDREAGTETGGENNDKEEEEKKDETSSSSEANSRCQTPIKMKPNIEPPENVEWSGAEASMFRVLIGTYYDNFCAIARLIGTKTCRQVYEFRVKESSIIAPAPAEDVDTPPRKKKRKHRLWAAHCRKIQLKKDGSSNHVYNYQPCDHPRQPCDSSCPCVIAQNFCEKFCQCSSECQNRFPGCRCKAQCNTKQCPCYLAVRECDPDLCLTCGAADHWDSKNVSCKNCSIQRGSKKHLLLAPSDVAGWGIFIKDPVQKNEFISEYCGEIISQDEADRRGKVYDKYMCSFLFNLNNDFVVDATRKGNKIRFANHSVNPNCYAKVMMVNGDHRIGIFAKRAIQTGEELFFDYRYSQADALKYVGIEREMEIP
T1 sequence (Q15022 2-739 partner limits assumed): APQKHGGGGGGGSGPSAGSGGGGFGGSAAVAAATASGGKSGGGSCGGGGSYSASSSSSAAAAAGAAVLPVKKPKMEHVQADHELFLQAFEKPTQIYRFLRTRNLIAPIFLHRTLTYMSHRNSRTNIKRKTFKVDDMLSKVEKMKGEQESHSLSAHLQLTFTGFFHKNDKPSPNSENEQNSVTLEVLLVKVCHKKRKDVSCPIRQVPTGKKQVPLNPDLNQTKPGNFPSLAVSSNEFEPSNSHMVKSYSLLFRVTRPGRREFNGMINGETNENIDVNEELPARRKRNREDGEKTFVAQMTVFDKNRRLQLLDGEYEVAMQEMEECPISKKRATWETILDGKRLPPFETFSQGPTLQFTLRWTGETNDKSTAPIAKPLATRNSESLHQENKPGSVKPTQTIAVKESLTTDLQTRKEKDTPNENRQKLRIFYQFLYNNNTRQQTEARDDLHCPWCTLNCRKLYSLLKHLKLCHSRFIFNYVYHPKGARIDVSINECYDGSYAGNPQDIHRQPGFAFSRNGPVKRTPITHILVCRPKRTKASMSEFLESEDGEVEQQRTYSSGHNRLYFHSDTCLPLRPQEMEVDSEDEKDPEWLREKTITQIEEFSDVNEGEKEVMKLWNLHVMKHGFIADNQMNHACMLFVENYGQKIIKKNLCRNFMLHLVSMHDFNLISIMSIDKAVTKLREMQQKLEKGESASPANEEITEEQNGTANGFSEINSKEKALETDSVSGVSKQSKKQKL
T1 sequence (O75530 2-441 partner limits assumed): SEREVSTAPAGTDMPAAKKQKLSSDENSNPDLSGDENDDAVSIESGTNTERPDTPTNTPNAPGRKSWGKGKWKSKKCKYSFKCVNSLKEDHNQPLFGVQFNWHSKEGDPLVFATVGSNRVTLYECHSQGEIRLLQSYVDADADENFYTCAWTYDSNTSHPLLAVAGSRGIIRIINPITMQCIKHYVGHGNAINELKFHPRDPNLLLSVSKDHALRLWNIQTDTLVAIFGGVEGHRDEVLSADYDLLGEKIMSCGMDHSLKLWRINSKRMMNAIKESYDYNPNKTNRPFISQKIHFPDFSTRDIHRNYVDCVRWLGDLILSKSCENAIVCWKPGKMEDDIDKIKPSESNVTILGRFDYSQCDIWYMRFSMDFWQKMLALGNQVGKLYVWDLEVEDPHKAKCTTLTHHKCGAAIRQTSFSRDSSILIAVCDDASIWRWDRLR
How it was run: (§1)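 EZH2/SUZ/EED (6.25 nM) or EZH1/SUZ/EED (25 nM) pre-incubated 15 min with compound in pH 7.6 Bicine buffer, 0.5% DMSO. Biotinylated H3(21-44) peptide 10 μM plus SAM 3 μM reacted 3 h at 30 °C; MTase-Glo luminescence normalized to controls, IC50 from variable-slope fit.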

EZH1/SUZ/EED = target: T2, EZH1/SUZ/EED (Homo sapiens, UniProt O75530+Q15022+Q92800); assay: Inhibitory effect on EZH1 by the MTase-Glo method (Test Example 1); format: biochemical; conditions: EZH1/SUZ/EED 25 nM, H3 peptide 10 μM, SAM 3 μM, 30° C. 3 h, read-out: Test Example 1 WT EZH1 IC50
T2 construct: purchased BPS 51006
T2 sequence (Q92800 2-747 limits assumed): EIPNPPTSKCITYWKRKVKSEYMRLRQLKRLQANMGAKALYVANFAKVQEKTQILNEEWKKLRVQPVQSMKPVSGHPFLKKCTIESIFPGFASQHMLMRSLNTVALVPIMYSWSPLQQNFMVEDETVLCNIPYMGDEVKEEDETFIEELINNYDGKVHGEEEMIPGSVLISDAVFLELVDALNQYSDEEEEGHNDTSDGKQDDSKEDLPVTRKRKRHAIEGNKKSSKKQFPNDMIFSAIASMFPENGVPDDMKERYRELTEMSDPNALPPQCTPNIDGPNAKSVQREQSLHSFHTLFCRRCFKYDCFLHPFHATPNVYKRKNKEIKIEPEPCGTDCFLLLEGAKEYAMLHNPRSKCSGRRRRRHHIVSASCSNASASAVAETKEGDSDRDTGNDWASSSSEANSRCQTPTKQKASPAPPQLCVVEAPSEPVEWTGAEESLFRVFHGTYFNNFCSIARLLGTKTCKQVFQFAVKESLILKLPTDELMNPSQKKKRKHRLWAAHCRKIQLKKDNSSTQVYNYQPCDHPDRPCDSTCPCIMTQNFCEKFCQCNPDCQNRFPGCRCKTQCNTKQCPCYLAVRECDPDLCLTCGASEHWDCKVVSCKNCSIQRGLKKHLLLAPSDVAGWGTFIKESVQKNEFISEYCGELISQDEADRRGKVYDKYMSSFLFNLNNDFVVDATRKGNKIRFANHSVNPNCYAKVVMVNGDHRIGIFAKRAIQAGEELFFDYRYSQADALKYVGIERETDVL
T2 sequence (Q15022 2-739 partner limits assumed): as the sequence (Q15022 2-739 partner limits assumed) above
T2 sequence (O75530 2-441 partner limits assumed): as the sequence (O75530 2-441 partner limits assumed) above
How it was run: as §1

Karpas-422 cells = assay: Anti-proliferation by Cell Titer-Glo method (Test Example 3); format: cell-based; conditions: Homo sapiens; for pIC50: Karpas-422 cells, Cell-Titer Glo on the eleventh day, read-out: Test Example 3 Karpas-422 cell anti-proliferation IC50; for IC50: KARPAS-422, read-out: Test Example 3 Karpas-422 cell anti-proliferation IC50(nM)
Procedure: Karpas-422 (Nanjing Kebai, CBP60629) cells were seeded in a 96-well plate (Corning, 3894) at 1,000 cells per well in growth medium (80% 1640 (Hyclone, SH30809.01)+20% FBS (Corning, 35-081-CV)), in a total of 100 μL, and then was added with 25 μL of 5-fold different concentrations of compounds diluted in growth medium. The cell growth group without compound addition was used as a positive control (maximum signal control), and the medium was used as a negative control (minimum signal control), while ensuring that the final contration of DMSO in each reaction well was 0.2%. Then the 96-well cell plate was placed in a cell culture incubator (37° C., 5% CO2) and incubated for 3 days. On the fourth day, the cell culture plate was taken out of the incubator, using a row gun to gently blow the cells up and down to mix, removing 62.5 μL of the cell suspension, adding 50 μL of growth medium and 12.5 μL of compounds of 5 times different concentrations, and then putting them in the cell incubator to incubate for 4 days. On the eighth day, the same method was used as the fourth day to treat the cells, then incubating in the cell culture incubator for 3 days. On the eleventh day, the Cell-Titer Glo (Promega, G7573) was used to detect cell viability, and a microplate reader was used to detect the signal value of luminescence.
The inhibition rate of different concentrations of compounds on cells was calculated as inhibition rate=[1−(compound signal value−negative control signal value)/(positive control signal value-negative control signal value)][…]. The IC50 of the compound on cell activity inhibition was calculated by GraphPad Prism 6 with log(inhibitor) vs. response-Variable slope model fitting. The fitting equation is: Y=Bottom+(Top−Bottom)/(1+10^((Log IC50−X)*Hill Slope)), wherein Y represents the inhibition rate, and X represents the known concentration of the compound after Log.

SMILES | pIC50 (EZH2/SUZ/EED) | pIC50 (EZH1/SUZ/EED) | pIC50 (Karpas-422 cells) | pIC50 ([1]; Homo sapiens, KARPAS-422, 72 h) | further results
COC1CN(C2CCC(C3COc4c(Cl)cc(C(=O)NCc5c(C)cc(C)[nH]c5=O)c(C)c4O3)CC2)C1 (single isomer, unassigned) [Compound 61] | 8.06 | 6.79 | 7.03 | – | pIC50 [1]: 7.13
CSc1cc(C)[nH]c(=O)c1CNC(=O)c1cc(Cl)c2c(c1C)O[C@@H]([C@H]1CC[C@@H](N3CC(CF)C3)CC1)CO2 [Compound 34] | – | – | 8.24 | 8.21 | –
Cc1cc(C)c(CNC(=O)c2cc(Cl)c3c(c2C)O[C@@H]([C@H]2CC[C@@H](N4CC5COCC5C4)CC2)CO3)c(=O)[nH]1 (some centres unmarked) [Compound 73] | 7.29 | 6.71 | – | < 6.00 | –
Cc1cc(C)c(CNC(=O)c2cc(Cl)c3c(c2C)O[C@@H]([C@H]2CC[C@H](N4CC5COCC5C4)CC2)CO3)c(=O)[nH]1 (some centres unmarked) [Compound 75] | 7.32 | 6.70 | – | 6.61 | –
COCCOC1CN([C@H]2CC[C@@H]([C@H]3COc4c(Cl)cc(C(=O)NCc5c(C)cc(C)[nH]c5=O)c(C)c4O3)CC2)C1 [Compound 91] | 8.42 | 7.56 | – | 7.93 | –
COC1CN([C@H]2CC[C@@H]([C@H]3COc4c(Cl)cc(C(=O)NCc5c(C)cc(C)[nH]c5=O)c(C)c4O3)CC2)C1 [Compound 92] | 8.60 | 7.48 | – | 7.66 | –
COCCN(C)[C@H]1CC[C@@H]([C@H]2COc3c(Cl)cc(C(=O)NCc4c(OC)cc(C)[nH]c4=O)c(C)c3O2)CC1 [Compound 107] | 8.49 | 7.75 | – | 7.24 | –
COc1cc(C)[nH]c(=O)c1CNC(=O)c1cc(Cl)c2c(c1C)O[C@@H]([C@H]1CC[C@H](N3CC(OCCF)C3)CC1)CO2 [Compound 110] | 8.57 | 7.81 | – | 7.67 | –
COc1cc(C)[nH]c(=O)c1CNC(=O)c1cc(Cl)c2c(c1C)O[C@@H]([C@H]1CC[C@@H](N3CC[C@H](OC)C3)CC1)CO2 [Compound 119] | – | – | 7.89 | – | –
COc1cc(C)[nH]c(=O)c1CNC(=O)c1cc(Cl)c2c(c1C)O[C@@H]([C@H]1CC[C@H](N3CC[C@H](OC)C3)CC1)CO2 [Compound 120] | – | – | 7.50 | – | –
COc1cc(C)[nH]c(=O)c1CNC(=O)c1cc(Cl)c2c(c1C)O[C@@H]([C@H]1CC[C@@H](N3CC[C@@H](OC)C3)CC1)CO2 [Compound 121] | – | – | 7.45 | 7.03 | –
COc1cc(C)[nH]c(=O)c1CNC(=O)c1cc(Cl)c2c(c1C)O[C@@H]([C@H]1CC[C@H](N3CC[C@@H](OC)C3)CC1)CO2 [Compound 122] | – | – | 6.33 | – | –
Cc1cc(C)c(CNC(=O)c2cc(Cl)c3c(c2C)OC(C2CCC(N(C)C)CC2)C(C)O3)c(=O)[nH]1 (centres unmarked) [Compound 124] | 7.79 | 6.49 | – | – | IC50 ([1]; Homo sapiens, KARPAS-422, 72 h): 133 nM
Cc1cc(C)c(CNC(=O)c2cc(Cl)c3c(c2C)OC(C2CCC(N(C)CCF)CC2)CO3)c(=O)[nH]1 (centres unmarked) [Compound 125] | 7.47 | 6.51 | – | 6.40 | –
Cc1cc(C)c(CNC(=O)c2cc(Cl)c3c(c2C)OC(C2CCC(N(C)C4CC(F)C4)CC2)CO3)c(=O)[nH]1 (centres unmarked) [Compound 126] | 7.69 | 6.66 | – | 6.09 | –
Cc1cc(C)c(CNC(=O)c2c(C)c3c(c(Cl)c2F)OC[C@H]([C@H]2CC[C@@H](N(C)C)CC2)O3)c(=O)[nH]1 [Compound 131] | 8.51 | 7.33 | – | 7.36 | –
Cc1cc(C)c(CNC(=O)c2cc(Cl)c3c(c2Cl)OC[C@@H]([C@H]2CC[C@@H](N(C)C)CC2)O3)c(=O)[nH]1 [Compound 147] | 8.17 | 7.04 | – | – | IC50 ([1]; Homo sapiens, KARPAS-422, 72 h): 83 nM
CSc1cc(C)[nH]c(=O)c1CNC(=O)c1cc(C#N)c2c(c1C)O[C@@H]([C@H]1CC[C@@H](N3CC(OC(F)F)C3)CC1)CO2 [Compound 163] | 8.15 | – | 8.77 | 8.72 | –
C#Cc1cc(C(=O)NCc2c(SC)cc(C)[nH]c2=O)c(C)c2c1OC[C@H]([C@H]1CC[C@@H](N3CC(OC)C3)CC1)O2 [Compound 165] | – | – | 8.92 | 8.85 | –
Cc1c(C(=O)NCC2COC2)cc(Cl)c2c1O[C@@H]([C@H]1CC[C@@H](N(C)C)CC1)CO2 [Compound 167] | – | – | – | – | IC50 (Karpas-422 cells): > 1000 nM
Cc1c(C(=O)NCC2COC2)cc(Cl)c2c1O[C@@H]([C@H]1CC[C@H](N(C)C)CC1)CO2 [Compound 168] | – | – | – | – | IC50 (Karpas-422 cells): > 1000 nM
COC1CN([C@H]2CC[C@H]([C@H]3COc4c(F)cc(C(=O)NCc5c(SC)cc(C)[nH]c5=O)c(C)c4O3)CC2)C1 [Compound 170] | – | – | 7.33 | – | –
COC1CN([C@H]2CC[C@H]([C@@H]3COc4c(F)cc(C(=O)NCc5c(SC)cc(C)[nH]c5=O)c(C)c4O3)CC2)C1 [Compound 171] | – | – | < 6.00 | < 6.00 | –
COC1CN([C@H]2CC[C@@H]([C@@H]3COc4c(F)cc(C(=O)NCc5c(SC)cc(C)[nH]c5=O)c(C)c4O3)CC2)C1 [Compound 172] | – | – | 6.43 | – | –
Cc1cc(Cl)c(CNC(=O)c2cc(Cl)c3c(c2C)O[C@@H]([C@H]2CC[C@@H](N(C)C)CC2)CO3)c(=O)[nH]1 [Compound 173] | – | – | 6.91 | – | –
Cc1cc(Cl)c(CNC(=O)c2cc(Cl)c3c(c2C)O[C@@H]([C@H]2CC[C@H](N(C)C)CC2)CO3)c(=O)[nH]1 [Compound 174] | 8.51 | 8.14 | 8.25 | – | –
COC1CN([C@H]2CC[C@H]([C@H]3COc4c(Cl)cc(C(=O)NCc5c(Cl)cc(C)[nH]c5=O)c(C)c4O3)CC2)C1 [Compound 176] | – | – | 6.71 | – | –
COc1cc(C)[nH]c(=O)c1CNC(=O)c1cc(Cl)c2c(c1C)O[C@@H]([C@H]1CC[C@@H](OCCF)CC1)CO2 [Compound 179] | – | – | 7.44 | – | –
COc1cc(C)[nH]c(=O)c1CNC(=O)c1cc(Cl)c2c(c1C)O[C@@H]([C@H]1CC[C@H](OCCF)CC1)CO2 [Compound 180] | – | – | 7.97 | – | –
Cc1cc(C)c(CNC(=O)c2cc(Cl)c3c(c2C)CC(C)(C2CCC(N(C)C)CC2)O3)c(=O)[nH]1 (centres unmarked) [Compound 181] | 7.52 | 5.87 | – | – | IC50 ([1]; Homo sapiens, KARPAS-422, 72 h): 410 nM
